Results on 33 molecules are retold here after patent US20050192279A1, “Pyridazinones as antagonists of alpha4 integrins” (priority 2004, published 2005).

One assay addresses T1, human α4β7 integrin (Homo sapiens, UniProt P13612+P26010).
T1 construct: expressed in transfected cells; host or cells: K562 cells, stably transfected
T1 sequence (P13612 34-1032): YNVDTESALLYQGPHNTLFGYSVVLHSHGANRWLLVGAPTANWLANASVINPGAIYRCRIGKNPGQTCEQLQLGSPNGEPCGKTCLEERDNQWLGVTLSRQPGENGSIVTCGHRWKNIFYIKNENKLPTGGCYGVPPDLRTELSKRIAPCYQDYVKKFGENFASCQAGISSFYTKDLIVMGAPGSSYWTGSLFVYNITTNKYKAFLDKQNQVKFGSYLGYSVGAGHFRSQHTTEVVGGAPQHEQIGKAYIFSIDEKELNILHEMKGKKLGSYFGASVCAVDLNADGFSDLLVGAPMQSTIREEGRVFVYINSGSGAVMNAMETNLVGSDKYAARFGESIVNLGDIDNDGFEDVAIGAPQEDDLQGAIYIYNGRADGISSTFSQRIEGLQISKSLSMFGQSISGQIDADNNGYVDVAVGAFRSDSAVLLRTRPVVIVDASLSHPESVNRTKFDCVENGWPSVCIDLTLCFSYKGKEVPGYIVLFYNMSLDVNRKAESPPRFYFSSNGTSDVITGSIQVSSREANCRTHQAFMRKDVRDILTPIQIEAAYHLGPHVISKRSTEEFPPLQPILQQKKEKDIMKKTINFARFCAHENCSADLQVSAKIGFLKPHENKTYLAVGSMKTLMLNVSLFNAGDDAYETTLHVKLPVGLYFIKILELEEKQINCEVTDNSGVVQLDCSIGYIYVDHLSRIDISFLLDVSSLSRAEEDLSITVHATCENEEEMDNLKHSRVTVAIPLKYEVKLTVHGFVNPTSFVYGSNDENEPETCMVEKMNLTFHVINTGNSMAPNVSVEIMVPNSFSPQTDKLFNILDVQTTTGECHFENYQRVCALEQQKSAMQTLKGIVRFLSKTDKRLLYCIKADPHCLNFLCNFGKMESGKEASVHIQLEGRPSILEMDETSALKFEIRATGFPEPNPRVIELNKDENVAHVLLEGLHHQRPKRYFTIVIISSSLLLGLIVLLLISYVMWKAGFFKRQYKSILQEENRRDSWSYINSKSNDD
T1 sequence (P26010 20-798): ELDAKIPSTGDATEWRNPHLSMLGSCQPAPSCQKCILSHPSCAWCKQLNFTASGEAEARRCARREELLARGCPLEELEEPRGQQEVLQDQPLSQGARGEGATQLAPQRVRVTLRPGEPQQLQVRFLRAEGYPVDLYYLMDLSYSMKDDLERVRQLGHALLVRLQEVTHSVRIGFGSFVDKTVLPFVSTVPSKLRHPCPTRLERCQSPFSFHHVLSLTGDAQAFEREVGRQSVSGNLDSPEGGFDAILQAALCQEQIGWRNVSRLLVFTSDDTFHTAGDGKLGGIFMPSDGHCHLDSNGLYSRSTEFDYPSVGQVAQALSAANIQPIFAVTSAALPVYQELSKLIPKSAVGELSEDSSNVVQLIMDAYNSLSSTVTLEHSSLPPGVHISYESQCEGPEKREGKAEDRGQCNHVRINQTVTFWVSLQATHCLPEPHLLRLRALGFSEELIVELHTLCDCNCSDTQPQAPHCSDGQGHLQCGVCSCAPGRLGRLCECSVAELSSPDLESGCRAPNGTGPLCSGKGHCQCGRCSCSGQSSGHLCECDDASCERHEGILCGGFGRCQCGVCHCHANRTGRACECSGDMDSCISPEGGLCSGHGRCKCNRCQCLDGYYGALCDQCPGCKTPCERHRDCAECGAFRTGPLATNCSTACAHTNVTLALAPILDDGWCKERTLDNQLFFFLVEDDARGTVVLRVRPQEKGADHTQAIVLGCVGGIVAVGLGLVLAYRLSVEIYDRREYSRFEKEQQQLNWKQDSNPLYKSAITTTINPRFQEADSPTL
The assay is described as follows: α4β7-K562 Cell Adhesion Assay (α4β7 Mediated Adhesion/MAdCAM-1). It is filed as cell-based. In short, it runs like this: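 Anti-FLAG plates coated 1 h at 4° C with FLAG-hMAdCAM-1 in PBS pH 7.4, 1% BSA, 1 mM Mn2+. Stably transfected K562 cells expressing human α4β7, labelled with CFDA-SE, adhered with compound 1 h at room temperature. After four washes, bound cells lysed in 0.1 M NaOH for fluorescence read-out.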

The next assay concerns the target T2, α4β1 (Homo sapiens, UniProt P05556+P13612).
T2 construct: Ramos Cell Adhesion Assay (α4β1 Mediated Adhesion/VCAM-1); endogenous in cells; host or cells: Ramos cells
Briefly: Ramos Cell Adhesion Assay (α4β1 Mediated Adhesion/VCAM-1). Format: cell-based. In short, it runs like this: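 Plates coated overnight at 4° C with recombinant hVCAM-1 at 4.0 μg/mL, pH 9.0, then blocked in PBS/1% BSA. Calcein AM-labeled Ramos cells added with compounds and left to adhere 1 h at room temperature; after washing, cells lysed in 1 M Tris pH 8.0/1% SDS.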

Setting [1] is: α4β7-K562 cell adhesion to hMAdCAM-1, read-out: α4β7 IC50.
[2] abbreviates: Ramos cell adhesion to hVCAM-1, read-out: α4β1 IC50.

Read-outs that look alike come from different tables or passages of the source.

T2 sequence (P05556 21-798, one chain of several): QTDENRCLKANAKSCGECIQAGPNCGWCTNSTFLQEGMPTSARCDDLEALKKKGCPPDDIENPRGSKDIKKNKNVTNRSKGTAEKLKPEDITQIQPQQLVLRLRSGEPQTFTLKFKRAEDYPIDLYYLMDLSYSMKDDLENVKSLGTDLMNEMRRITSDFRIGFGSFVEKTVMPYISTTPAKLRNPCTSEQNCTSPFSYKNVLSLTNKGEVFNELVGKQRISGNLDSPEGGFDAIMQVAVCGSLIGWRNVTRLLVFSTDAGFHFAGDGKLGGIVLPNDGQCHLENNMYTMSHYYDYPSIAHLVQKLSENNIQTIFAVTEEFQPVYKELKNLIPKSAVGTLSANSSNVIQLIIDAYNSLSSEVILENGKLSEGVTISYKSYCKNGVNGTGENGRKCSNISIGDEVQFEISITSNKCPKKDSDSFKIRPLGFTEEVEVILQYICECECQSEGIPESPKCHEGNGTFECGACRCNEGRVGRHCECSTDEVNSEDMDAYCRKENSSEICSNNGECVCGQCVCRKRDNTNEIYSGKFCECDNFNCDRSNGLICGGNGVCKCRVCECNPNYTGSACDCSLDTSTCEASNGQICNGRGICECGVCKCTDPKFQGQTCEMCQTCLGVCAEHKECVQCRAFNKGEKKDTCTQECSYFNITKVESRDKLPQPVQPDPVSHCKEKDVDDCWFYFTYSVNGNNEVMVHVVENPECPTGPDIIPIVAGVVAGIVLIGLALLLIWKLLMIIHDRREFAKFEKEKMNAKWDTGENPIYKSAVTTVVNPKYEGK

`CN(C)c1cnn(C(C)(C)C)c(=O)c1-c1ccc(C[C@H](NC(=O)c2c(Cl)cccc2Cl)C(=O)O)cc1` [Cpd 155]: the IC50 – broadly, the concentration needed to halve the response being measured – at human α4β7 integrin (setting [1]) is 332 nM; on α4β1 (setting [2]), greater than 1000 nM.
For `CNc1cnn(C)c(=O)c1-c1ccc(C[C@H](NC(=O)c2c(Cl)cccc2Cl)C(=O)O)cc1` [Cpd 156], the IC50 on human α4β7 integrin (setting [1]) was 339 nM; on α4β1 (setting [2]), greater than 5000 nM.
Regarding `COc1cnn(C)c(=O)c1-c1ccc(C[C@H](NC(=O)CN(C)C(=O)OC(C)(C)C)C(=O)O)cc1` [Cpd 157], the values for the IC50 at human α4β7 integrin (setting [1]) and on α4β1 (setting [2]) were 353 nM and greater than 5000 nM, respectively.
On to `COc1cnn(C)c(=O)c1-c1ccc(C[C@H](NC(=O)C(N)C(C)C)C(=O)O)cc1` (stereo partly drawn) [Cpd 159], for which the IC50 is 363 nM at human α4β7 integrin (setting [1]) and greater than 5000 nM on α4β1 (setting [2]).
The matching figures for `CC(C)(C)n1ncc(-n2cncn2)c(-c2ccc(C[C@H](NC(=O)c3c(Cl)cccc3Cl)C(=O)O)cc2)c1=O` [Cpd 160]: 364 nM and 611 nM.
As to `Cn1ncc(NCCCl)c(-c2ccc(C[C@H](NC(=O)c3c(Cl)cccc3Cl)C(=O)O)cc2)c1=O` [Cpd 162], the IC50 at human α4β7 integrin (α4β7 IC50, α4β7-K562 cell adhesion to hMAdCAM-1) was 408 nM; against α4β1 (α4β1 IC50, Ramos cell adhesion to hVCAM-1) it was greater than 5000 nM.
For `COc1cnn(C)c(=O)c1-c1ccc(C[C@H](NC(=O)c2cc(=O)[nH]c(=O)[nH]2)C(=O)O)cc1` [Cpd 163], the IC50 at human α4β7 integrin (setting [1]) was 429 nM; at α4β1 (setting [2]), greater than 5000 nM.
On the same counts, the results for `COc1cnn(C)c(=O)c1-c1ccc(C[C@H](NC(=O)C2CCN(C(=O)OCc3ccccc3)CC2)C(=O)O)cc1` [Cpd 164] are 457 nM and greater than 5000 nM.
The matching figures for `COc1cnn(CCN2CCOCC2)c(=O)c1-c1ccc(C[C@H](NC(=O)[C@H](NC(=O)OC(C)(C)C)[C@H](C)O)C(=O)O)cc1` [Cpd 167]: 480 nM and greater than 5000 nM.
`O=C(N[C@@H](Cc1ccc(-c2c(O)cn[nH]c2=O)cc1)C(=O)O)c1c(Cl)cccc1Cl` [Cpd 168]: the figures for the IC50 at human α4β7 integrin (setting [1]) and on α4β1 (setting [2]) were 490 nM and greater than 1000 nM, respectively.
`COc1cnn(C)c(=O)c1-c1ccc(C[C@H](NC(=O)c2ccc(CO)cc2)C(=O)O)cc1` [Cpd 170]: the IC50 at human α4β7 integrin (setting [1]) was 514 nM; at α4β1 (setting [2]) it was 2810 nM.
On to `COc1cnn(C)c(=O)c1-c1ccc(C[C@H](NC(=O)OCC(C)(C)C)C(=O)O)cc1` [Cpd 171], for which the IC50 is 536 nM on human α4β7 integrin (setting [1]) and greater than 5000 nM on α4β1 (setting [2]).
The matching figures for `COc1cnn(C)c(=O)c1-c1ccc(C[C@H](NC(=O)OCc2ccccc2)C(=O)O)cc1` [Cpd 172, (S)-2-Benzyloxycarbonylamino-3-[4-(5-methoxy-2-methyl-3-oxo-2,3-dihydro-pyridazin-4-yl)-phenyl]-propionic acid]: 570 nM and greater than 5000 nM.
The matching figures for `COc1cnn(C)c(=O)c1-c1ccc(C[C@H](NC(=O)CN(C)C)C(=O)O)cc1` [Cpd 173]: 575 nM and greater than 5000 nM.
For `COc1cnn(C)c(=O)c1-c1ccc(C[C@H](NC(=O)OCC(C)C)C(=O)O)cc1` [Cpd 175], the IC50 was 591 nM on human α4β7 integrin (setting [1]) and greater than 5000 nM at α4β1 (setting [2]).
With `COc1cnn(C)c(=O)c1-c1ccc(C[C@H](NC(=O)C2(NC(=O)OC(C)(C)C)CC2)C(=O)O)cc1` [Cpd 177], the IC50 at human α4β7 integrin (setting [1]) was 163 nM; on α4β1 (setting [2]), greater than 5000 nM.
For `COc1cnn(CCN2CCOCC2)c(=O)c1-c1ccc(C[C@H](NC(=O)[C@H](NC(C)C)C(C)C)C(=O)O)cc1` [Cpd 179], the figures for the IC50 on human α4β7 integrin (setting [1]) and at α4β1 (setting [2]) were 721 nM and greater than 5000 nM, respectively.
On the same counts, the results for `COc1cnn(C)c(=O)c1-c1ccc(C[C@H](NC(=O)OC23CC4CC(CC(C4)C2)C3)C(=O)O)cc1` [Cpd 180] are 731 nM and greater than 5000 nM.
The matching figures for `COc1cnn(C)c(=O)c1-c1ccc(CC(NC(=O)C(N)C(C)C)C(=O)O)cc1` (stereo not drawn) [Cpd 181, 2-(2-Amino-3-methyl-butyrylamino)-3-[4-(5-methoxy-2-methyl-3-oxo-2,3-dihydro-pyridazin-4-yl)-phenyl]-propionic acid]: 750 nM and greater than 5000 nM.
On the same counts, the results for `COC(=O)[C@H](Cc1ccc(-c2c(OC)cnn(C)c2=O)cc1)NC(=O)[C@@H]1C2CCC(CC2)N1C(=O)CCc1ccccc1` [Cpd 182] are 785 nM and greater than 1000 nM.
Consider `COc1cnn(C)c(=O)c1-c1ccc(C[C@H](NC(=O)OC(C)C)C(=O)O)cc1` [Cpd 184], for which the IC50 is 813 nM at human α4β7 integrin (setting [1]) and greater than 5000 nM at α4β1 (setting [2]).
On the same counts, the results for `COc1cnn(C)c(=O)c1-c1ccc(C[C@H](NC(=O)C(C)(C)O)C(=O)O)cc1` [Cpd 185] are 817 nM and greater than 5000 nM.
The matching figures for `COc1cnn(C)c(=O)c1-c1ccc(C[C@H](NC(=O)C2(C(=O)OC(C)(C)C)CCOCC2)C(=O)O)cc1` [Cpd 186]: 842 nM and 1530 nM.
The matching figures for `COc1cnn(C)c(=O)c1-c1ccc(C[C@H](NC(=O)c2n[nH]c3ccccc23)C(=O)O)cc1` [Cpd 187]: 865 nM and greater than 5000 nM.
For `COc1cc(N)c(Cl)cc1C(=O)N[C@@H](Cc1ccc(-c2c(OC)cnn(C)c2=O)cc1)C(=O)O` [Cpd 188], the IC50 on human α4β7 integrin (setting [1]) was 922 nM; on α4β1 (setting [2]), greater than 5000 nM.
With `COc1cnn(C)c(=O)c1-c1ccc(C[C@H](NC(=O)[C@@H](NC2CCCCC2)C(C)C)C(=O)O)cc1` [Cpd 189], the IC50 on human α4β7 integrin (setting [1]) is 937 nM; on α4β1 (setting [2]), greater than 5000 nM.
The matching figures for `Cn1ncc(N)c(-c2ccc(C[C@H](NC(=O)OC(C)(C)C)C(=O)O)cc2)c1=O` [Cpd 190]: 979 nM and greater than 5000 nM.
As to `COc1cnn(C)c(=O)c1-c1ccc(C[C@H](NC(=O)c2cccnc2O)C(=O)O)cc1` [Cpd 191], the IC50 on human α4β7 integrin (setting [1]) is 999 nM; at α4β1 (setting [2]), greater than 5000 nM.
Regarding `COc1cnn(C)c(=O)c1-c1ccc(C[C@H](NC(=O)c2cccn(C)c2=O)C(=O)O)cc1` [Cpd 193], the IC50 on human α4β7 integrin (setting [1]) was 1160 nM; at α4β1 (setting [2]), greater than 5000 nM.
`COc1cnn(CCO)c(=O)c1-c1ccc(C[C@@H](CO)NC(=O)c2c(Cl)cccc2Cl)cc1` [Cpd 194]: the IC50 is 1220 nM on human α4β7 integrin (setting [1]) and greater than 5000 nM on α4β1 (setting [2]).
The matching figures for `Cc1ccc(Oc2cnn(C(C)(C)C)c(=O)c2-c2ccc(C[C@H](NC(=O)c3c(Cl)cccc3Cl)C(=O)O)cc2)cc1` [Cpd 196, (S)-3-[4-(2-tert-Butyl-3-oxo-5-p-tolyloxy-2,3-dihydro-pyridazin-4-yl)-phenyl]-2-(2,6-dichloro-benzoylamino)-propionic acid]: 1290 nM and greater than 5000 nM.
As to `Nc1cnn(-c2ccccc2)c(=O)c1-c1ccc(C[C@H](NC(=O)c2c(Cl)cccc2Cl)C(=O)O)cc1` [Cpd 197], the IC50 at human α4β7 integrin (setting [1]) is 1320 nM; on α4β1 (setting [2]), greater than 1000 nM.
On the same counts, the results for `COc1cnn(C)c(=O)c1-c1ccc(C[C@H](NC(=O)C2CCNCC2)C(=O)O)cc1` [Cpd 198] are 1340 nM and greater than 5000 nM.
